The experiment relates to his-tag integrins. The experiment in a line: Irisin-integrin binding in presence of RGDS or control peptide, co-immunoprecipitation. Also on record: species or system human. Particulars: 100 nM flag-tag irisin, 5 nM his-tag integrins, 10 uM peptide, vs control RGD peptide. How it is done: 100 nM flag-tag irisin was incubated with 5 nM of indicated integrins with his-tag in the presence of RGDS peptide or its control peptide (10 uM). This was followed by immunoprecipitation using anti-his-tag agarose. Co-precipitated irisin was analyzed by immunoblot analysis with antibody against flag tag.
Certain materials and methods were used to generate the results described herein. For example, the data shown in FIG. 1A resulted from MLO-Y4 (an osteocyte-like cell line) cells treated with the indicated concentration of irisin and hydrogen peroxide for 4 hours. Cells were stained with Hoechst 33342 (ThermoFisher Scientific, catalog number H3570) and Eth-D1 (ThermoFisher Scientific, catalog number E1169) and analyzed to determine the percentage of cell death using ImageJ. […] Co-precipitated irisin was analyzed by immunoblot analysis against flag tag (Sigma Aldrich, catalog number A8592). The data shown in FIGS. 5A and 5B were generated from MLO-Y4 cells treated and analyzed as in the experiments used to generate the data shown in FIG. 2D, except that pre-treatment of 100 nM RGDS (FIG. 5A) or echistatin (R & D Systems Inc., catalog number 3202/100U) (FIG. 5B) for 10 minutes was performed before irisin treatment. […] Sclerostin mRNA level was analyzed by qPCR (FIG. 7A). […]

On to “RGDS peptide: classical integrin competitive inhibitory peptide, commercially available form of the RGD peptide”, for which the “effect on irisin binding to integrins” value is recorded as “inhibited much of the irisin binding”. Moreover, the “effect on irisin binding to integrins” value (listed as RGDS) is recorded as “blocked”.
